Assay [1] deals with T1, NaDC1 (Homo sapiens, UniProt Q13183).
T1 sequence (Q13183 1-592): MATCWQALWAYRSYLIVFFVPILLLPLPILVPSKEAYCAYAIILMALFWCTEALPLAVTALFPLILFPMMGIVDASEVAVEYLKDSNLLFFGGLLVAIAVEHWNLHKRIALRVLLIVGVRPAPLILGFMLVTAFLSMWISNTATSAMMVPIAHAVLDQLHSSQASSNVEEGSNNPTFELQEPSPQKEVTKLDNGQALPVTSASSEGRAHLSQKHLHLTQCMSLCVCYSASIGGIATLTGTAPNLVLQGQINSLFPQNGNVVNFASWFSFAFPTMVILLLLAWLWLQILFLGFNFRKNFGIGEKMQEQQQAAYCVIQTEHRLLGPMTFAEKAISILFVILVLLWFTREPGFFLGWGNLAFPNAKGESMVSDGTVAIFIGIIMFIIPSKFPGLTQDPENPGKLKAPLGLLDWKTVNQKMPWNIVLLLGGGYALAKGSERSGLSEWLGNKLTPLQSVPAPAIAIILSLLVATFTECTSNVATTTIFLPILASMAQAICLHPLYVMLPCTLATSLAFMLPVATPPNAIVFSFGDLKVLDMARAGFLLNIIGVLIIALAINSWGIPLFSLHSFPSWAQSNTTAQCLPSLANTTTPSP
The assay can be described thus: CD thermal melting at […] nm. In kind it is binding. Details: gene SLC13A2; full length, homodimer; N-terminal FLAG purified from HEK293F (structures, natural variant I550V); GFP and FLAG tagged in HEK293T for currents. As to conditions: absolute Tm in presence of citrate, not a shift; whether WT carries I550V not stated.

Assay [2] addresses T2, NaDC1 (Homo sapiens, UniProt Q13183, T142A).
T2 construct: gene SLC13A2; full length, homodimer; N-terminal FLAG purified from HEK293F (structures, natural variant I550V); GFP and FLAG tagged in HEK293T for currents
T2 sequence (Q13183 1-592 T142A): T1 sequence (Q13183 1-592) with T142A
The assay can be described thus: CD thermal melting at […] nm. The format is binding. As to conditions: absolute Tm in presence of citrate, not a shift.

In assay [3] the target is T3, NaDC1 (Homo sapiens, UniProt Q13183, S140A).
T3 construct: gene SLC13A2; full length, homodimer; N-terminal FLAG purified from HEK293F (structures, natural variant I550V); GFP and FLAG tagged in HEK293T for currents
T3 sequence (Q13183 1-592 S140A): T1 sequence (Q13183 1-592) with S140A
The assay can be described thus: CD thermal melting at […] nm. In kind it is binding. Particulars: absolute Tm in presence of citrate, not a shift.

Assay [4] has as its target T1, NaDC1. The assay can be described thus: whole-cell patch clamp, transfected HEK293T. In kind it is cell-based. Details: gene SLC13A2; full length, homodimer; GFP and FLAG tagged in HEK293T for currents. As to conditions: gradient of citrate concentrations; 140 mM NaCl bath, pH 7.4. (In general: Patch clamp records ionic current or voltage across a cell membrane.)
For assay [5], the target named is T4, NaDC1 (Homo sapiens, UniProt Q13183, I550V).
T4 construct: gene SLC13A2; full length, homodimer; N-terminal FLAG purified from HEK293F (structures, natural variant I550V); GFP and FLAG tagged in HEK293T for currents
T4 sequence (Q13183 1-592 I550V): T1 sequence (Q13183 1-592) with I550V
The assay can be described thus: cryo-EM structure ([…] Å). In kind it is binding. Particulars: 10 mM sodium citrate; substrate site; Na+ at Na1 and Na2.

Changes are numbered by the printed parent chain.

As for `O=C(O)CC(O)(CC(=O)O)C(=O)O` [citrate], the Tm on NaDC1 [1] was determined as 62.9 ± 0.3 °C; at NaDC1 [2] it was 56.4 ± 0.3 °C; on NaDC1 [3], 57.1 ± 0.7 °C. Moreover, the “whole-cell patch clamp, transfected HEK293T” value at NaDC1 [4] is listed as “wild-type (WT) NaDC1 is indeed capable of transporting citrate”. For the same compound, at NaDC1 [5], the “cryo-EM structure (2.7 Å)” value was “we discern two sodium ions and one citrate molecule distinctly situated within a single protomer”.

The record behind these values is PMC10980263, “Cryo-EM structures of the human NaS1 and NaDC1 transporters revealed the elevator transport and allosteric regulation mechanism” (Science Advances, 2024).
